{
  "source": "the supplement of paper PMC11208160",
  "data": [
    {"test": "recombinant UMI read abundance after kanamycin selection (control-corrected) (log10(CPM+1)); higher = more efficient recombination; extreme values may be limits of the assay; sequences stand for … in AGTGCAGAGAAAATCGGCCAGTTTTCTCTGCCTGCAGTCCGCATGCCGTGGGACCCCTTGGGTTCTAACCTGTTGCCTAGATTTATGCAGCGGACTGCCTTTCTCCCAAAGTGATAAACCGG…AGGTTGGTTTCACT; site = the 11-nt donor", "summary_of_the_method": "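Sequenced counts of recombinant UMIs were turned into CPM, averaged across replicates and scaled with control-derived factors. The reported figure is log10(CPM+1). Those UMIs, each 12 nt long, tagged donor and donor-binding-loop pairs on a plasmid with a promoterless kanamycin gene, screened as a pool in Escherichia coli with IPTG (0.07 mM) plus kanamycin or without selection.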", "values": [
      {"sequence": "GATGTAACATGGACCGGTTTTCCCGGTAATCCGTATTTGCT (site TATGTAACTAG)", "recombinant UMI read abundance (log10)": 1.83},
      {"sequence": "GATGTATCATGGACCGGTTTTCCCGGTAATCCGTATTTGCA (site GATGTATCTTG)", "recombinant UMI read abundance (log10)": 2.3},
      {"sequence": "GATGTTCCATGGACCGGTTTTCCCGGTAATCCGTATTTGGT (site GATGTTCCTAC)", "recombinant UMI read abundance (log10)": 0.0188},
      {"sequence": "GATGTTCCATGGACCGGTTTTCCCGGTAATCCGTATTTGGT (site GCTGTTCCTAC)", "recombinant UMI read abundance (log10)": 0.00282},
      {"sequence": "GATGTTCCATGGACCGGTTTTCCCGGTAATCCGTATTTGGT (site GGTGTTCCTAC)", "recombinant UMI read abundance (log10)": 0},
      {"sequence": "GATGTTCCATGGACCGGTTTTCCCGGTAATCCGTATTTGGT (site GTTGTTCCTAC)", "recombinant UMI read abundance (log10)": 0.00388},
      {"sequence": "GATTAGACATGGACCGGTTTTCCCGGTAATCCGTATTTGCT (site TTGCTCCCTGT)", "recombinant UMI read abundance (log10)": 0},
      {"sequence": "GATTATCCATGGACCGGTTTTCCCGGTAATCCGTATTTGAT (site GATTATCCTAA)", "recombinant UMI read abundance (log10)": 0.0183},
      {"sequence": "GATTATCCATGGACCGGTTTTCCCGGTAATCCGTATTTGAT (site GATTATCCTAC)", "recombinant UMI read abundance (log10)": 0.0054},
      {"sequence": "GATTATCCATGGACCGGTTTTCCCGGTAATCCGTATTTGAT (site GATTATCCTAG)", "recombinant UMI read abundance (log10)": 0},
      {"sequence": "GATTATCCATGGACCGGTTTTCCCGGTAATCCGTATTTGAT (site GATTATCCTAT)", "recombinant UMI read abundance (log10)": 0},
      {"sequence": "GATTATCCATGGACCGGTTTTCCCGGTAATCCGTATTTGGT (site GATTATCCTAA)", "recombinant UMI read abundance (log10)": 0.017},
      {"sequence": "GATTATCCATGGACCGGTTTTCCCGGTAATCCGTATTTGGT (site GATTATCCTAC)", "recombinant UMI read abundance (log10)": 0.0163},
      {"sequence": "GATTATCCATGGACCGGTTTTCCCGGTAATCCGTATTTGGT (site GATTATCCTAG)", "recombinant UMI read abundance (log10)": 0},
      {"sequence": "GATTATCCATGGACCGGTTTTCCCGGTAATCCGTATTTGGT (site GATTATCCTAT)", "recombinant UMI read abundance (log10)": 0},
      {"sequence": "GATTATCCATGGACCGGTTTTCCCGGTAATCCGTATTTGTT (site GATTATCCTAA)", "recombinant UMI read abundance (log10)": 0.00783},
      {"sequence": "GATTATCCATGGACCGGTTTTCCCGGTAATCCGTATTTGTT (site GATTATCCTAC)", "recombinant UMI read abundance (log10)": 0},
      {"sequence": "GATTATCCATGGACCGGTTTTCCCGGTAATCCGTATTTGTT (site GATTATCCTAG)", "recombinant UMI read abundance (log10)": 0},
      {"sequence": "GATTATCCATGGACCGGTTTTCCCGGTAATCCGTATTTGTT (site GATTATCCTAT)", "recombinant UMI read abundance (log10)": 0},
      {"sequence": "GATTGAACATGGACCGGTTTTCCCGGTAATCCGTATTTGAC (site GATTGAACTGT)", "recombinant UMI read abundance (log10)": 0},
      {"sequence": "GATTGAACATGGACCGGTTTTCCCGGTAATCCGTATTTGAC (site GATTGCACTGT)", "recombinant UMI read abundance (log10)": 0.00522},
      {"sequence": "GATTGAACATGGACCGGTTTTCCCGGTAATCCGTATTTGAC (site GATTGGACTGT)", "recombinant UMI read abundance (log10)": 0.339},
      {"sequence": "GATTGAACATGGACCGGTTTTCCCGGTAATCCGTATTTGAC (site GATTGTACTGT)", "recombinant UMI read abundance (log10)": 0},
      {"sequence": "GATTGTACATGGACCGGTTTTCCCGGTAATCCGTATTTGCG (site GATTGTACTCG)", "recombinant UMI read abundance (log10)": 0.619},
      {"sequence": "GATTGTACATGGACCGGTTTTCCCGGTAATCCGTATTTGGG (site GATTGTACTCC)", "recombinant UMI read abundance (log10)": 0.0205},
      {"sequence": "GATTGTCCATGGACCGGTTTTCCCGGTAATCCGTATTTGAT (site GATTGTCCTAT)", "recombinant UMI read abundance (log10)": 1.17},
      {"sequence": "GATTTTCCATGGACCGGTTTTCCCGGTAATCCGTATTTGCT (site GATTATCCTAG)", "recombinant UMI read abundance (log10)": 0},
      {"sequence": "GATTTTCCATGGACCGGTTTTCCCGGTAATCCGTATTTGCT (site GATTCTCCTAG)", "recombinant UMI read abundance (log10)": 0},
      {"sequence": "GATTTTCCATGGACCGGTTTTCCCGGTAATCCGTATTTGCT (site GATTGTCCTAG)", "recombinant UMI read abundance (log10)": 0.014},
      {"sequence": "GATTTTCCATGGACCGGTTTTCCCGGTAATCCGTATTTGCT (site GATTTTCCTAG)", "recombinant UMI read abundance (log10)": 0},
      {"sequence": "GCAAAGCCATGGACCGGTTTTCCCGGTAATCCGTATTTGGG (site GCAAAGCCTCC)", "recombinant UMI read abundance (log10)": 0.00379},
      {"sequence": "GCAAAGCCATGGACCGGTTTTCCCGGTAATCCGTATTTGGG (site GCCAAGCCTCC)", "recombinant UMI read abundance (log10)": 0.00875},
      {"sequence": "GCAAAGCCATGGACCGGTTTTCCCGGTAATCCGTATTTGGG (site GCGAAGCCTCC)", "recombinant UMI read abundance (log10)": 0.00619},
      {"sequence": "GCAAAGCCATGGACCGGTTTTCCCGGTAATCCGTATTTGGG (site GCTAAGCCTCC)", "recombinant UMI read abundance (log10)": 0.0133},
      {"sequence": "GCAACATCATGGACCGGTTTTCCCGGTAATCCGTATTTGCC (site GCAACATCTGG)", "recombinant UMI read abundance (log10)": 0.611},
      {"sequence": "GCAAGAACATGGACCGGTTTTCCCGGTAATCCGTATTTGAG (site GCAAGAACTCT)", "recombinant UMI read abundance (log10)": 2.56},
      {"sequence": "GCAATAACATGGACCGGTTTTCCCGGTAATCCGTATTTGGT (site GCAATAACTAC)", "recombinant UMI read abundance (log10)": 2.38},
      {"sequence": "GCAATCGCATGGACCGGTTTTCCCGGTAATCCGTATTTGAG (site GCAATCGCTCT)", "recombinant UMI read abundance (log10)": 2.29}
    ]}
  ]
}
